Reference: patent publication US20260076893A1, “SELF-FOAMING CLEANSING COMPOSITION” (Conopco, Inc., d/b/a UNILEVER, priority 2022, published 2026)

Tests used:
[1] = DPPH scavenging method (antioxidation); assay type: biochemical; conditions: 0.25%, positive control, dilution not given
Source text: To add antioxidation properties to the self-foaming cleansing composition, tocopherol (Vitamin E) can be added. Antioxidation can be measured using a DPPH scavenging method where DPPH (1,1-Diphenyl-2-picrylhydrazyl) is a stable free radical. On accepting hydrogen from a corresponding donor, its solutions lose a characteristic deep purple color and antiradical activity of tested formulations can be expressed as a percentage decrease of DPPH concentration. […] Accordingly, in a further aspect, the invention relates to the use of tocopherol in a composition according to the invention to provide anti-oxidant activity to the cleansing composition, preferably dose-dependent anti-oxidant activity. The invention relates further to the use of tocopherol to reduce free radicals in a cleansing composition according to the invention, preferably dose-dependent anti-oxidant activity. In a further embodiment, it may be preferred that the cleansing composition of the invention comprises tocopherol and moringa seed oil.
The antioxidant activity of the formulations in Samples 4 and 5 were tested using the DPPH scavenging method (1,1-Diphenyl-2-picrylhydrazyl). DPPH is a stable free radical. […] The antiradical activity of Samples 4 and 5 was expressed as a percentage decrease of DPPH concentration.

AQP3 = test: Living skin equivalent assay, AQP3 gene expression; assay type: cell-based
Description: (§1) In the following samples, compositions were made with varying levels of moringa seed oil and tested in a living skin equivalent assay. The base composition was tested with levels of 0.1% by weight, 0.2% by weight, and 0.3% by weight of moringa seed oil, based on the total weight of the self-foaming cleansing composition. The living skin equivalent assay study monitored gene expression of several markers after application of the test solutions to the living skin equivalent assay.
(§2) Comparative Example 1 was a non-treated control meaning no application on the skin model. Comparative Example 2 was another control where phosphate-buffered saline (PBS) was applied topically to the skin model.

CASP14 = test: Living skin equivalent assay, CASP14 gene expression; assay type: cell-based
Description: as §1, §2

IL-1a = test: Living skin equivalent assay, IL-1a; assay type: cell-based; conditions: living skin equivalent after application of test solution
Description: as §1, §2

Compound	% Reduction over DPPH reagent control [1] [%]	AQP3 (Fold change) (AQP3)	CASP14 (Fold change) (CASP14)	IL-1a (IL-1a) [pg/mL]
O=C1O[C@H]([C@@H](O)CO)C(O)=C1O [Vitamin C]	95.04	–	–	–
squalene monoperoxide [SQOOH]	–	0.27 ± 0.04	0.54 ± 0.31	483.84 ± 11.42
